# Reference: the NIST ThermoML archive (doi:10.1016/j.fluid.2016.03.013)
# Numbers after ± are expanded uncertainties.
# Assay: xn = mol fraction of the nth substance listed
# Settings: for surface tension liquid-gas / mass density: draining crucible method; for viscosity / mass density: 101 kPa, Liquid; for viscosity: Draining crucible
structure (smiles),measurement,setting,value
[Al] [aluminum] + [Zn],surface tension liquid-gas,"873 K, x1 = 0.25",802.1 ± 49 mN/m
same,surface tension liquid-gas,"873 K, x1 = 0.51",830.8 ± 49 mN/m
same,viscosity,"873 K, x1 = 0.25",1.917 ± 0.095 mPa·s
same,viscosity,"873 K, x1 = 0.51",1.633 ± 0.095 mPa·s
same,mass density,"873 K, x1 = 0.25",5201 ± 86 kg/m3
same,mass density,"873 K, x1 = 0.51",4204 ± 86 kg/m3
same,surface tension liquid-gas,"923 K, x1 = 0.25",789.4 ± 49 mN/m
same,surface tension liquid-gas,"923 K, x1 = 0.51",819.6 ± 49 mN/m
same,surface tension liquid-gas,"923 K, x1 = 0.83",858.7 ± 49 mN/m
same,viscosity,"923 K, x1 = 0.25",1.791 ± 0.095 mPa·s
same,viscosity,"923 K, x1 = 0.51",1.542 ± 0.094 mPa·s
same,viscosity,"923 K, x1 = 0.83",1.356 ± 0.094 mPa·s
same,mass density,"923 K, x1 = 0.25",5139 ± 86 kg/m3
same,mass density,"923 K, x1 = 0.51",4138 ± 88 kg/m3
same,mass density,"923 K, x1 = 0.83",2720 ± 89 kg/m3
same,surface tension liquid-gas,"973 K, x1 = 0.25",779.3 ± 49 mN/m
same,surface tension liquid-gas,"973 K, x1 = 0.51",806.5 ± 49 mN/m
same,surface tension liquid-gas,"973 K, x1 = 0.83",848.1 ± 49 mN/m
same,viscosity,"973 K, x1 = 0.25",1.696 ± 0.095 mPa·s
same,viscosity,"973 K, x1 = 0.51",1.448 ± 0.094 mPa·s
same,viscosity,"973 K, x1 = 0.83",1.271 ± 0.094 mPa·s
same,mass density,"973 K, x1 = 0.25",5089 ± 86 kg/m3
same,mass density,"973 K, x1 = 0.51",4089 ± 88 kg/m3
same,mass density,"973 K, x1 = 0.83",2680 ± 89 kg/m3
same,surface tension liquid-gas,"1023 K, x1 = 0.25",763.8 ± 49 mN/m
same,surface tension liquid-gas,"1023 K, x1 = 0.51",795.8 ± 49 mN/m
same,surface tension liquid-gas,"1023 K, x1 = 0.83",836.9 ± 49 mN/m
same,viscosity,"1023 K, x1 = 0.25",1.643 ± 0.094 mPa·s
same,viscosity,"1023 K, x1 = 0.51",1.405 ± 0.094 mPa·s
same,viscosity,"1023 K, x1 = 0.83",1.222 ± 0.094 mPa·s
same,mass density,"1023 K, x1 = 0.25",5011 ± 86 kg/m3
same,mass density,"1023 K, x1 = 0.51",3995 ± 88 kg/m3
same,mass density,"1023 K, x1 = 0.83",2530 ± 90 kg/m3
